# From ChEMBL document CHEMBL1149631, “Synthesis of 3,8,9-trisubstituted-1,7,9-triaza-fluorene-6-carboxylic acid derivatives as a new class of insulin secretagogues” (Bioorg Med Chem, 2007)
# Columns and labels:
# Format in all cases: functional
# [1] = Effect on glucose-dependent insulin secretion activity per ug of total protein in rat RIN5F cells at 0.1 uM after 30 mins
# [2] = Effect on glucose-dependent insulin secretion activity per ug of total protein in rat RIN5F cells at 1 uM after 30 mins
# [3] = Effect on glucose-dependent insulin secretion activity per ug of total protein in rat RIN5F cells at 10 uM after 30 mins
SMILES,Activity [1],Activity [2],Activity [3]
COC(=O)C1Cc2c(n(C)c3ncc(C)cc23)C(c2ccccc2)N1 (centres undefined),13.5 pg/µg/h,14.9 pg/µg/h,15.2 pg/µg/h
Cn1c2ncccc2c2cc(C(=O)O)nc(-c3ccccc3)c21,17.2 pg/µg/h,19.3 pg/µg/h,21.1 pg/µg/h
Cn1c2ncccc2c2cc(C(=O)O)nc(C3CCCCC3)c21,16.1 pg/µg/h,18.4 pg/µg/h,21.4 pg/µg/h
COC(=O)c1cc2c([nH]c3ncc(C)cc32)c(Cc2ccccc2)n1,14.1 pg/µg/h,14.8 pg/µg/h,15.1 pg/µg/h
COC(=O)C1Cc2c([nH]c3ncccc23)C(c2ccccc2)N1 (centres undefined),10.8 pg/µg/h,11.2 pg/µg/h,11.5 pg/µg/h
COC(=O)c1cc2c3cccnc3n(C)c2cn1,13 pg/µg/h,13.1 pg/µg/h,13.9 pg/µg/h
COC(=O)c1cc2c([nH]c3ncc(C)cc32)c(C)n1,13.5 pg/µg/h,13.9 pg/µg/h,14.2 pg/µg/h
Cc1cnc2[nH]c3c(C)nc(C(=O)O)cc3c2c1,16.2 pg/µg/h,18.5 pg/µg/h,21.1 pg/µg/h
O=C(O)c1cc2c(cn1)[nH]c1ncccc12,14.1 pg/µg/h,16.2 pg/µg/h,18 pg/µg/h
COC(=O)C1Cc2c([nH]c3ncccc23)C(C)N1 (centres undefined),10.1 pg/µg/h,10.6 pg/µg/h,10.9 pg/µg/h
COC(=O)C1Cc2c(n(C)c3ncccc23)C(Cc2ccccc2)N1 (centres undefined),11.5 pg/µg/h,12.2 pg/µg/h,12.9 pg/µg/h
COC(=O)C1Cc2c([nH]c3ncccc23)C(Cc2ccccc2)N1 (centres undefined),10.9 pg/µg/h,11.5 pg/µg/h,11.9 pg/µg/h
COC(=O)C1Cc2c([nH]c3ncc(C)cc23)C(c2ccccc2)N1 (centres undefined),11 pg/µg/h,11.9 pg/µg/h,12.2 pg/µg/h
COC(=O)c1cc2c3cc(C)cnc3n(C)c2c(C)n1,14.8 pg/µg/h,15.2 pg/µg/h,15.9 pg/µg/h
Cc1cnc2c(c1)c1cc(C(=O)O)nc(C)c1n2C,18.1 pg/µg/h,22 pg/µg/h,28.3 pg/µg/h
Cc1cnc2[nH]c3cnc(C(=O)O)cc3c2c1,15.1 pg/µg/h,17.3 pg/µg/h,19.2 pg/µg/h
COC(=O)C1Cc2c(n(C)c3ncccc23)C(C)N1 (centres undefined),10.9 pg/µg/h,11.5 pg/µg/h,11.9 pg/µg/h
COC(=O)C1Cc2c(n(C)c3ncc(C)cc23)CN1 (centres undefined),12.2 pg/µg/h,13.1 pg/µg/h,14.1 pg/µg/h
Cc1cnc2[nH]c3c(-c4ccccc4)nc(C(=O)O)cc3c2c1,17.1 pg/µg/h,19.3 pg/µg/h,21.4 pg/µg/h
COC(=O)C1Cc2c([nH]c3ncccc23)C(C2CCCCC2)N1 (centres undefined),10.2 pg/µg/h,10.7 pg/µg/h,11 pg/µg/h
COC(=O)C1Cc2c(n(C)c3ncccc23)C(C2CCCCC2)N1 (centres undefined),10.9 pg/µg/h,11.5 pg/µg/h,11.9 pg/µg/h
COC(=O)C1Cc2c(n(C)c3ncccc23)CN1 (centres undefined),10.8 pg/µg/h,11.2 pg/µg/h,11.5 pg/µg/h
Cc1cnc2[nH]c3c(Cc4ccccc4)nc(C(=O)O)cc3c2c1,18 pg/µg/h,19.2 pg/µg/h,22.1 pg/µg/h
COC(=O)C1Cc2c(n(C)c3ncc(C)cc23)C(C)N1 (centres undefined),12.3 pg/µg/h,13.2 pg/µg/h,14 pg/µg/h
COC(=O)c1cc2c3cccnc3n(C)c2c(C2CCCCC2)n1,13.4 pg/µg/h,13.9 pg/µg/h,14.2 pg/µg/h
Cc1cnc2c(c1)c1cc(C(=O)O)nc(C3CCCCC3)c1n2C,18.2 pg/µg/h,23.1 pg/µg/h,28.2 pg/µg/h
COC(=O)c1cc2c3cccnc3n(C)c2c(-c2ccccc2)n1,13.9 pg/µg/h,14.1 pg/µg/h,14.8 pg/µg/h
O=C(O)c1cc2c([nH]c3ncccc32)c(-c2ccccc2)n1,16.2 pg/µg/h,18.1 pg/µg/h,20.6 pg/µg/h
